Data published in patent US20050032858A1, “Novel heterocyclic compound and anti-inflamatory agent” (priority 2001, published 2005).
Like-named read-outs stand apart in the source and are kept apart here.

Legend:
[1] = system: mouse ear edema induced by TPA; assay type: in vivo, ICR-strain male mouse; conditions: topical, measured 6 hours after TPA
Description: This test was carried out referring to the methods of Carlson, R. P., et al. [Agents and Actions 17 (2): 197-204 (1985)] and of Chang, J., et al. [European Journal of Pharmacology 142: 197-205 (1987)]: 5 μg/20 μL of TPA (Sigma Chemical Co., Ltd.) dissolved in ethanol was applied on the anterior and posterior surfaces of the right ear of an ICR-strain male mouse (6 to 7 weeks old). The thickness of a specific area of each of the ears was measured 3 times by a digimatic micrometer 6 hours after the application. The mean values were calculated. Ear edema was determined by subtracting the mean thickness of the non-treated left ear from that of the TPA-applied right ear. A topical application activity was evaluated in a way that an acetone solution or a 0.1% Tween 80/acetone solution of a compound of the present invention was applied on the anterior and posterior surfaces of the right ear 30 minutes before and 15 minutes after the application of TPA. […] An oral administration activity was evaluated by forced oral administration of a suspension of a compound of the present invention in 2% Tween 80/distilled water an hour before applying TPA. […]

[2] = system: acetic acid induced writhes; assay: Acetic acid writhing; assay type: in vivo, ICR-strain male mouse; conditions: i.p., 30 minutes before, vehicle control 25.2 ± 2.2
Description: This test was carried out referring to the methods of Inoue, K., Motonaga, A. and Nishimura, T. [Arzneimittel Forshung/Drug Research 41 (1): 235-239 (1991)] and of Murata, T., et al. [Nature 388: 678-682 (1997)]: 7.5 mL/kg of a 0.9% aqueous solution of acetic acid was injected intraperitoneally into an ICR-strain male mouse (6 to 8 weeks old). The number of induced writhes (characteristic behavior of contracting the abdomen, twisting the body and/or extending the hind legs in agony) was counted in a period between 10 minutes and 20 minutes after the injection. A compound of the present invention was homogeneously suspended in 2% Tween 80/saline for injection use and injected intraperitoneally 30 minutes before the induction of stimulation by the acetic acid injection. Alternatively the compound was homogeneously suspended in 2% Tween 80/distilled water and orally administered an hour before the stimulation induction by the acetic acid injection. The analgesic activity of the compound of the present invention was evaluated on the basis of how many writhes were suppressed by the administration. Indomethacin or aspirin was administered as the positive control.

## COc1ccc2c(c1)c(CC(=O)O)c(C)n2C(=O)c1ccc(Cl)cc1 [Indomethacin, indomethacin]
[1]; 3 mg/40 μL/ear × 2
  Ear edema inhibition (%): 63.5%
[2]; 3 mg/kg
  No. of writhes (mean ± S.E.): 13.8 ± 3.0
[2]; 10 mg/kg
  No. of writhes (mean ± S.E.): 4.8 ± 0.9

## CC(=O)Oc1ccccc1C(=O)O [Aspirin, aspirin]
[2]; 30 mg/kg
  No. of writhes (mean ± S.E.): 9.5 ± 2.0

## CC(=O)OCC(=O)[C@@]1(O)[C@H](C)C[C@H]2[C@@H]3CCC4=CC(=O)C=C[C@]4(C)[C@@]3(F)[C@@H](O)C[C@@]21C [DEX-Ac, dexamediasone-21-acetate]
[1]; 1 mg/20 μL/ear × 2
  Ear edema inhibition (%): 79.6%
